Data as given in publication PMC4065394 (The FEBS journal, 2014).
Where “and” joins values, the source holds several entries; their conditions need not be identical. Identical values can stand only once. Entries after “also recorded” stand apart in the source; their conditions may differ. Like-named read-outs stand apart in the source and are kept apart here.

Experiments:
[1] = target: T1, R478A DXP synthase (Escherichia coli, UniProt P77488, R478A); settings: + D-GAP (2 mM in second syringe), 6 °C
[2] = target: T2, Y392F DXP synthase (Escherichia coli, UniProt P77488, Y392F); settings: − D-GAP, 6 °C, single turnover
[3] = target: T3, R420A DXP synthase (Escherichia coli, UniProt P77488, R420A); settings: − D-GAP, 6 °C, single turnover
[4] = target: T4, wild type DXP synthase (Escherichia coli, UniProt P77488); settings: − D-GAP, 6 °C; cited from earlier work
[5] = target: T1, R478A DXP synthase; settings: − D-GAP, 6 °C, single turnover
[6] = target: T4, wild type DXP synthase; settings: 6 °C, cited from earlier work
[7] = target: T2, Y392F DXP synthase; settings: + D-GAP (200 μM in second syringe), 6 °C
[8] = target: T3, R420A DXP synthase; settings: + D-GAP (2 mM in second syringe), 6 °C
[9] = target: T1, R478A DXP synthase; assay: biochemical; format: binding, E. coli
[10] = target: T2, Y392F DXP synthase; format: biochemical, E. coli; settings: for Km: Y392F, coupled assay, 37 °C
[11] = target: T4, wild type DXP synthase; settings: cited from earlier work
[12] = target: T2, Y392F DXP synthase; assay: CD titration with pyruvate; format: binding, E. coli
[13] = target: T3, R420A DXP synthase; assay: biochemical; format: binding, E. coli
[14] = target: T2, Y392F DXP synthase; assay: Substrate binding by intrinsic total protein fluorescence; parameters: species or system E. coli
[15] = target: T4, wild type DXP synthase; assay: as above; parameters: species or system E. coli
[16] = target: T4, wild type DXP synthase; settings: read-out: Kd^pyruvate (apparent), CD spectroscopy; cited from earlier work
[17] = target: T1, R478A DXP synthase; format: biochemical, E. coli; settings: for Km: R478A, coupled assay, 37 °C
[18] = target: T2, Y392F DXP synthase; format: biochemical, E. coli; settings: 6 °C, from pyruvate and D-GAP
[19] = target: T4, wild type DXP synthase; settings: 6 °C; cited from earlier work
[20] = target: T1, R478A DXP synthase; format: biochemical, E. coli; settings: 6 °C, from pyruvate and D-GAP
[21] = target: T4, wild type DXP synthase; settings: 30 mM D-glyceraldehyde, 8 °C
[22] = target: T4, wild type DXP synthase; assay: DX product formation from pyruvate and D-glyceraldehyde; format: biochemical, E. coli; settings: 30 mM D-glyceraldehyde and 5 mM pyruvate, 8 °C
[23] = target: T3, R420A DXP synthase; assay: Steady-state DXP formation monitored by CD at 290 nm; format: biochemical, E. coli; settings: 37 °C, D-GAP 0.25 – 2 mM, 1 mM pyruvate
[24] = target: T2, Y392F DXP synthase; format: biochemical, E. coli; settings: CD at 290 nm, 37 °C
[25] = target: T1, R478A DXP synthase; format: biochemical, E. coli
[26] = target: T1, R478A DXP synthase; format: binding, E. coli; settings: D-GAP up to 15 mM
[27] = target: T3, R420A DXP synthase; assay: Substrate binding by intrinsic total protein fluorescence; parameters: species or system E. coli; settings: D-GAP up to 15 mM

## Cc1ncc(C[n+]2c(C(C)(O)C(=O)O)sc(CCOP(=O)(O)OP(=O)(O)O)c2C)c(N)n1 (stereo not drawn) [LThDP, C2α-lactylthiamin diphosphate]
[1]
  D-GAP-promoted LThDP Decarboxylation, k2: k2 = 36.5 ± 1.1 s^−1
  Formation of LThDP (re-synthesis), k1: k1 = 0.84 ± 0.004 s^−1
[2]
  Formation of LThDP, k1 (faster phase): 1.06 ± 0.03 s⁻¹
  Formation of LThDP, k1′ (slower phase): 0.3 ± 0.01 s⁻¹
[3]
  Formation of LThDP, k1 (faster phase): 1.24 ± 0.01 s⁻¹
  Formation of LThDP, k1′ (slower phase): 0.28 ± 0.002 s⁻¹
[4]
  Formation of LThDP, k1 (faster phase): 1.39 ± 0.05 s⁻¹
  Formation of LThDP, k1′ (slower phase): 0.16 ± 0.02 s⁻¹
  LThDP Decarboxylation, k2: k2 = 0.07 ± 0.006 s^−1
[5]
  Formation of LThDP, k1 (faster phase): 0.85 ± 0.03 s⁻¹
  Formation of LThDP, k1′ (slower phase): 0.29 ± 0.02 s⁻¹
[6]
  D-GAP-promoted LThDP Decarboxylation, k2: k2 = 42.0 ± 1.0 s^−1
[6]; + D-GAP
  Formation of LThDP (re-synthesis), k1: k1 = 0.68 ± 0.01 s^−1
[7]
  Formation of LThDP (re-synthesis), k1: k1 = 0.82 ± 0.01 s^−1
[8]
  Formation of LThDP (re-synthesis), k1: k1 = 0.67 ± 0.003 s^−1

## CC(=O)C(=O)O [pyruvate]
[9]
  Kd: 80 ± 30 µM
[9]; R478A, CD, 5 °C
  Hill coefficient nH for pyruvate: 1.0 ± 0.2
[10]; Y392F vs wild type
  increase in Km^pyruvate compared to wild type: 1.5 fold
[10]; read-out: Km^pyruvate
  Km: 73 ± 4 µM
[11]; read-out: Km^pyruvate, wild type
  Km: 49 ± 8 µM
[12]
  Kd: 113 µM
[13]
  Kd: 37 ± 8 µM
[13]; R420A, CD, 5 °C
  Hill coefficient nH for pyruvate: 1.2 ± 0.3
[14]
  Kd: 230 ± 60 µM
[15]
  Kd: 230 ± 70 µM
[16]
  Kd: 89.4 µM
[17]; read-out: Km^pyruvate
  Km: 54 ± 7 µM

## CC(=O)[C@@H](O)[C@H](O)COP(=O)(O)O [DXP, 1-deoxy-D-xylulose 5-phosphate]
[18]
  Formation of DXP, k4 (faster phase): 1.34 ± 0.12 s⁻¹
  Formation of DXP, k4′ (slower phase): 0.34 ± 0.01 s⁻¹
[19]
  Formation of DXP, k4′ (slower phase): 0.29 ± 0.01 s⁻¹
[20]
  Formation of DXP, k4 (faster phase): 0.78 ± 0.08 s⁻¹
  Formation of DXP, k4′ (slower phase): 0.26 ± 0.02 s⁻¹

## O=C[C@H](O)CO [D-glyceraldehyde]
[21]
  rate of LThDP decarboxylation promoted with D-glyceraldehyde, k2: 21.5 ± 0.2 s⁻¹ and 21 s⁻¹

## CC(=O)[C@@H](O)[C@H](O)CO [DX, 1-deoxy-D-xylulose]
[22]
  overall rate of DX product formation, k4: 1.15 ± 0.7 s⁻¹
  overall rate of DX product formation, k4′: 0.5 ± 0.2 s⁻¹

## O=C[C@H](O)COP(=O)(O)O [D-GAP, D-glyceraldehyde 3-phosphate]
[10]; Y392F vs wild type
  decrease in kcat/Km^D-GAP compared to wild type: near eight-fold decrease
[10]; read-out: Km^D-GAP
  Km: 210 ± 20 µM
[23]
  saturation by D-GAP: saturation by D-GAP is not achieved; also recorded: Saturation was not achieved
[11]; read-out: Km^D-GAP
  Km: 23.5 ± 1.7 µM
[24]
  Hill coefficient nH for D-GAP: 1.2 ± 0.1
[25]; CD at 290 nm, 37 °C
  Hill coefficient nH for D-GAP: 1.1 ± 0.1
[25]; read-out: Km^D-GAP, CD at 290 nm, 37 °C, D-GAP 0.15 – 2 mM, 1 mM pyruvate
  Km: 530 ± 100 µM
[15]
  Kd: 2000 ± 500 µM
[26]
  fluorescence quenching upon titration of D-GAP: quenching of fluorescence was not observed; also recorded: negligible changes in fluorescence
[27]
  fluorescence quenching upon titration of D-GAP: negligible changes in fluorescence; also recorded: quenching of fluorescence was not observed
[17]; R478A vs wild type
  increase in Km^D-GAP compared to wild type DXP synthase: 70 fold
[17]; read-out: Km^D-GAP
  Km: 1600 ± 300 µM
